From ChEMBL document CHEMBL5360638, “Development of an Affinity-Based Probe to Profile Endogenous Human Adenosine A3 Receptor Expression” (J Med Chem, 2023)
Calls of active or inactive are those of the source. No cut-off for these calls is given here.

How the values were obtained:
[1] = molecular target: T1, Adenosine receptor A3 (Homo sapiens) (UniProt P0DMS8); test: Binding affinity to human A3AR expressed in CHO cells membrane at 50 nM incubated for 1 hr by SDS-PAGE analysis; type: cell membranes
T1 sequence (whole entry): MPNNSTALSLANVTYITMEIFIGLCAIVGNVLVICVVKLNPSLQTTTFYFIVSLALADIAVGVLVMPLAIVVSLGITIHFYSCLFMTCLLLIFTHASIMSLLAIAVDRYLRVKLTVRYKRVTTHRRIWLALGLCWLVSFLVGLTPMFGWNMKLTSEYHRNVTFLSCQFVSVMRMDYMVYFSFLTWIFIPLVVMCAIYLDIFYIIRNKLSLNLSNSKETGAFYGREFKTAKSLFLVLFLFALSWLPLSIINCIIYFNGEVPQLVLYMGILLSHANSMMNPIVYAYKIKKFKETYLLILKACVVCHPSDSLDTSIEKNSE

[2] = molecular target: T1, Adenosine receptor A3 (Homo sapiens); test: Binding affinity to human A3AR expressed in eosinophil incubated for 1 hr by flow cytometry analysis; type: cell-based
[3] = molecular target: T1, Adenosine receptor A3 (Homo sapiens); test: Binding affinity to human A3AR expressed in granulocytes incubated for 1 hr by flow cytometry analysis; type: cell-based
Homo sapiens = species: Homo sapiens; test: Selectivity ratio of pKi for human A3AR to pKi for human A1AR
[4] = molecular target: T1, Adenosine receptor A3 (Homo sapiens); test: Binding affinity to human A3AR at 50 nM incubated for 1 hr by SDS-PAGE analysis

| Structure (SMILES) | Activity [1] | Activity [2] | Activity [3] | Ratio pKi (Homo sapiens) | Activity [4] |
| --- | --- | --- | --- | --- | --- |
| C#CCOc1ccn2c(c1)nc1c2c(=O)n(CCC)c(=O)n1CCCNC(=O)c1ccc(S(=O)(=O)F)cc1 | Active | Active | inactive | > 17 | Active |
| C#CCN(CCCn1c(=O)n(CCC)c(=O)c2c1nc1cc(OC)ccn12)C(=O)c1ccc(S(=O)(=O)F)cc1 |  |  |  | > 100 | Active |
| C#CCn1c(=O)c2c(nc3cc(OC)ccn32)n(CCCNC(=O)c2ccc(S(=O)(=O)F)cc2)c1=O |  |  |  |  | Active |
